According to ChEMBL document CHEMBL3991601, “The target landscape of clinical kinase drugs” (Science, 2017):
Activity calls are given as the source filed them. Rule as the data show it, for most assays here: actives have a measured Kd and inactives only a lower limit.

Tests used:
[1] = molecular target: Tyrosine-protein kinase ABL1 (Homo sapiens, UniProt P00519)
[2] = molecular target: TRAF2 and NCK-interacting protein kinase (Homo sapiens, UniProt Q9UKE5)
[3] = molecular target: T1, Phenylalanine--tRNA ligase beta subunit (Homo sapiens, UniProt Q9NSD9)
T1 sequence (Q9NSD9 whole entry): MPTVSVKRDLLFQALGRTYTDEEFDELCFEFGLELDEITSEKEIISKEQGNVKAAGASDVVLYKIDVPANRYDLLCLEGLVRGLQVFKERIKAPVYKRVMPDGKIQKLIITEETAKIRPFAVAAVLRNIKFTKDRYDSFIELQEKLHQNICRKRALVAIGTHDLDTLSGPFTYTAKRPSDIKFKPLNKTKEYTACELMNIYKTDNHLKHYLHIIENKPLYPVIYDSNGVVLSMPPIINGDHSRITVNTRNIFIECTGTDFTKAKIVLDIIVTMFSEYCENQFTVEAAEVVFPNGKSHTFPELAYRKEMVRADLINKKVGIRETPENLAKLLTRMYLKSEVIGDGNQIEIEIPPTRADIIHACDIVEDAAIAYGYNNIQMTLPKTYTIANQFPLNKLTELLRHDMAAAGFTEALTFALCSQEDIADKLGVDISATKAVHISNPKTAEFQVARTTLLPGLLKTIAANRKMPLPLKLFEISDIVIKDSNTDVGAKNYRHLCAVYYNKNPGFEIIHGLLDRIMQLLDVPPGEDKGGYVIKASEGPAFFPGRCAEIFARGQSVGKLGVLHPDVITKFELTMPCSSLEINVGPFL

Activated CDC42 kinase 1 = Activated CDC42 kinase 1 (Homo sapiens, UniProt Q07912)
Sequence of Activated CDC42 kinase 1 (Q07912 whole entry): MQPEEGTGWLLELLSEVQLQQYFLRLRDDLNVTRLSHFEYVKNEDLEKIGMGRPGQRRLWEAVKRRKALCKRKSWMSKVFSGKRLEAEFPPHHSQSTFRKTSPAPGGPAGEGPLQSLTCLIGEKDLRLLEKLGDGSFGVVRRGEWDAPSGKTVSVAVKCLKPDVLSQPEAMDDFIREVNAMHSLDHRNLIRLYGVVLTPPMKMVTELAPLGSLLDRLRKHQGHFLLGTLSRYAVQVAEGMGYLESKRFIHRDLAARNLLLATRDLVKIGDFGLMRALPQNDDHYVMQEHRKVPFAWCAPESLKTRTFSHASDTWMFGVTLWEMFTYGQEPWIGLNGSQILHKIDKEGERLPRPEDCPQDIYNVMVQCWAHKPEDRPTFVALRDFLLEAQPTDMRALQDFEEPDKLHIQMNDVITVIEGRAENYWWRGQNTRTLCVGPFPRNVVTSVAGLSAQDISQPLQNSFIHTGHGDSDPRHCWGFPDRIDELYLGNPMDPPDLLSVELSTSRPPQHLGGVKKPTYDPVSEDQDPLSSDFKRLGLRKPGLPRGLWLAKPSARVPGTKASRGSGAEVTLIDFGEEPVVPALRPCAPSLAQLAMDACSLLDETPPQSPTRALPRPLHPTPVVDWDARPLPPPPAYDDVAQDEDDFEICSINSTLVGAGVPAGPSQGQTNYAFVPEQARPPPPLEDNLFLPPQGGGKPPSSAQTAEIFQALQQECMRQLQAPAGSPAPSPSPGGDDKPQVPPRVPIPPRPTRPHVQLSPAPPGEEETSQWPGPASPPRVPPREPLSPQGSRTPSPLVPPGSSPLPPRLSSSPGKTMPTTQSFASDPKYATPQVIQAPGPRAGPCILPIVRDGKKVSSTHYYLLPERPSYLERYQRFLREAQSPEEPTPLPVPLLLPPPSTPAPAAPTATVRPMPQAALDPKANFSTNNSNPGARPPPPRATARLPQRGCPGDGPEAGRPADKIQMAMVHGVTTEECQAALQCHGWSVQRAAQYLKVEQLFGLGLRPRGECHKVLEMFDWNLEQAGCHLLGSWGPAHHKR

[4] = molecular target: Mitogen-activated protein kinase 8 (Homo sapiens, UniProt P45983)
[5] = molecular target: Cyclin-dependent kinase 13 (Homo sapiens, UniProt Q14004)
Sequence of Cyclin-dependent kinase 13 (Q14004 whole entry): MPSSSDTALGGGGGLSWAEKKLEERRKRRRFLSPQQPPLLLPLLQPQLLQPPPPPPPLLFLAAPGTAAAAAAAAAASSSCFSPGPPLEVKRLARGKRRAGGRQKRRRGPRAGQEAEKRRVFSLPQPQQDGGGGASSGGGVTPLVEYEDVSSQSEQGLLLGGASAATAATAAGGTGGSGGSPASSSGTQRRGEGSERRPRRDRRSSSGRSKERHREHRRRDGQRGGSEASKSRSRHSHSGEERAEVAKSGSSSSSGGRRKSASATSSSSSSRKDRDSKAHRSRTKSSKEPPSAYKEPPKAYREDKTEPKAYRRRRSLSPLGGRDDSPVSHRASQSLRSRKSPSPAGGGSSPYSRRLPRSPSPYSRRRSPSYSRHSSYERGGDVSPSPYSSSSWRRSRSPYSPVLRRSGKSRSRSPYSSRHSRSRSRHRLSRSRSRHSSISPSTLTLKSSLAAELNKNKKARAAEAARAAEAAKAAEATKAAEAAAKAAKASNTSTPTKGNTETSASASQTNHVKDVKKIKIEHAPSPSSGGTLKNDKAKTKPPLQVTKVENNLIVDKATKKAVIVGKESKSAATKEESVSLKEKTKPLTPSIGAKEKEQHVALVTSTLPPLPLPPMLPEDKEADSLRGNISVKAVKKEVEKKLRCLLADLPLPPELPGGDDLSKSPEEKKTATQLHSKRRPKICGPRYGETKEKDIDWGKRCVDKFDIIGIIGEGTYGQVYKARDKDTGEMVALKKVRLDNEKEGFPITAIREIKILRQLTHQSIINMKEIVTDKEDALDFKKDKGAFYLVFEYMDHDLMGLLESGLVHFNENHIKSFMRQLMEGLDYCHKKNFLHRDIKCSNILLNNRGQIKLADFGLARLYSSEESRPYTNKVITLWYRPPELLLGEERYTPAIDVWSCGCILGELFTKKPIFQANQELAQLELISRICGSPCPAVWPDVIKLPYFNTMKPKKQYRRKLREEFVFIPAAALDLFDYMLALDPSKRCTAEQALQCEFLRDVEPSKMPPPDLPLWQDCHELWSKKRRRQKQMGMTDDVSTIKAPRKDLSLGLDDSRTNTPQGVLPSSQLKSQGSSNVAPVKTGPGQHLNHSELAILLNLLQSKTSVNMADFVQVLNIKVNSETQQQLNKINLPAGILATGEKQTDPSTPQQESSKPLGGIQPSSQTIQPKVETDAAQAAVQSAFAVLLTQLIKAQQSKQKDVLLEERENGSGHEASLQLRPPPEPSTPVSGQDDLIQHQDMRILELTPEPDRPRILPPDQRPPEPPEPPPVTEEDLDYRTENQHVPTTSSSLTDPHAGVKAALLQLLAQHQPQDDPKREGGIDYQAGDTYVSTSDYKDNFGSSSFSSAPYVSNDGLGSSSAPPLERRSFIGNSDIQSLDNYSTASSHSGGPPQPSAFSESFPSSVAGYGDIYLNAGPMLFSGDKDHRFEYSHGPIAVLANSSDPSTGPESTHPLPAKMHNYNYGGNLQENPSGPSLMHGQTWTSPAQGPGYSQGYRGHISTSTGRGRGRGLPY

[6] = molecular target: T2, Inhibitor of nuclear factor kappa-B kinase subunit epsilon (Homo sapiens, UniProt Q14164)
T2 sequence (Q14164 whole entry): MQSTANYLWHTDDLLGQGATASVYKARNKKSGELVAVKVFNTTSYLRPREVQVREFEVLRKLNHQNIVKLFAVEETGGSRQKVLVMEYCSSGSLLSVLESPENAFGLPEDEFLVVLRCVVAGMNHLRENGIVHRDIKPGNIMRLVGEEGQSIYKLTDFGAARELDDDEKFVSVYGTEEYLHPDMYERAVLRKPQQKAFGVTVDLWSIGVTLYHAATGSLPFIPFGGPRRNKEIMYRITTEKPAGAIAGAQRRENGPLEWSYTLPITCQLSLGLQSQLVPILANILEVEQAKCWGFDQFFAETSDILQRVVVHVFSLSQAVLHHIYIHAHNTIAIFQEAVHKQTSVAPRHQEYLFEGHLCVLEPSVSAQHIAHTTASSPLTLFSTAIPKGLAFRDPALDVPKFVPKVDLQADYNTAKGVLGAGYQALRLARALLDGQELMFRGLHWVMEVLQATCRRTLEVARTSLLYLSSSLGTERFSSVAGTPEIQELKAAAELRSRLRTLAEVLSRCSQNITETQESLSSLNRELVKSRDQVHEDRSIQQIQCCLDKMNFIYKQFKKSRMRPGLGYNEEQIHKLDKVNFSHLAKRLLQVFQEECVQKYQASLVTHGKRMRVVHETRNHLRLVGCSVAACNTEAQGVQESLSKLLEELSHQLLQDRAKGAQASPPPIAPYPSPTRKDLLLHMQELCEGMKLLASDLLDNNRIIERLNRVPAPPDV

[7] = molecular target: T3, Eukaryotic translation initiation factor 5B (Homo sapiens, UniProt O60841)
T3 sequence (O60841 whole entry): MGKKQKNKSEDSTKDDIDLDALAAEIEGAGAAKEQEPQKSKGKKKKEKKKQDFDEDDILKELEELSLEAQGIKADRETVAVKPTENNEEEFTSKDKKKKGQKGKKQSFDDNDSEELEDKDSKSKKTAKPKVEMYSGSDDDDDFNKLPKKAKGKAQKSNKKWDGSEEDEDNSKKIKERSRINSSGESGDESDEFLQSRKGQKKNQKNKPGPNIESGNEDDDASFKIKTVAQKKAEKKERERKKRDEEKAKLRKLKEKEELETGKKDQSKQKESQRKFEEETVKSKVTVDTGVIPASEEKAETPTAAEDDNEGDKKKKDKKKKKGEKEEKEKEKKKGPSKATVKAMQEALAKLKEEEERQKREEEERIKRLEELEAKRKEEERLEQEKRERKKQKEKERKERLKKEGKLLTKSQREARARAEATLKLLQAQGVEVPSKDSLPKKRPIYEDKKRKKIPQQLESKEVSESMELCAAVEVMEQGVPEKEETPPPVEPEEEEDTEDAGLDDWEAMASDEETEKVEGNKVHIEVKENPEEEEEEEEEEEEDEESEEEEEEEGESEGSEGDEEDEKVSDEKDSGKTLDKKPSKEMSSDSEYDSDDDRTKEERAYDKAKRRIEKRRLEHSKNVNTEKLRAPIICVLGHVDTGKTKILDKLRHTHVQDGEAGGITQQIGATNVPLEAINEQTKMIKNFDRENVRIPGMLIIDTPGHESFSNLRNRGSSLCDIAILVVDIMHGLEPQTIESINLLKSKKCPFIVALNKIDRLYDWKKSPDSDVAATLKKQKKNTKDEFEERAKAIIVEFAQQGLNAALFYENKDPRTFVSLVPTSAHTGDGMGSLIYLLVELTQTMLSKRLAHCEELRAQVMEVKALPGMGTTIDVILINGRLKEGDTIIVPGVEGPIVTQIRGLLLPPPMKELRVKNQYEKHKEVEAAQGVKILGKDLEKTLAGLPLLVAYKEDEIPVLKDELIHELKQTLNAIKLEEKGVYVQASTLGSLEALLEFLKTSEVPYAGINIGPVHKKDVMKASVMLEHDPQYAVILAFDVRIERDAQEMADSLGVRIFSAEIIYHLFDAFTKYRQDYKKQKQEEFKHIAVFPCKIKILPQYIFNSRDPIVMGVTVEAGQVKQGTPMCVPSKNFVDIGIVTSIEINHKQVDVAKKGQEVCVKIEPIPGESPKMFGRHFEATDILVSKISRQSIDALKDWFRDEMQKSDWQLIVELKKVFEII

[8] = molecular target: Mitogen-activated protein kinase 7 (Homo sapiens, UniProt Q13164)
[9] = molecular target: Rho-associated protein kinase 1 (Homo sapiens, UniProt Q13464)
Sequence of Rho-associated protein kinase 1 (Q13464 whole entry): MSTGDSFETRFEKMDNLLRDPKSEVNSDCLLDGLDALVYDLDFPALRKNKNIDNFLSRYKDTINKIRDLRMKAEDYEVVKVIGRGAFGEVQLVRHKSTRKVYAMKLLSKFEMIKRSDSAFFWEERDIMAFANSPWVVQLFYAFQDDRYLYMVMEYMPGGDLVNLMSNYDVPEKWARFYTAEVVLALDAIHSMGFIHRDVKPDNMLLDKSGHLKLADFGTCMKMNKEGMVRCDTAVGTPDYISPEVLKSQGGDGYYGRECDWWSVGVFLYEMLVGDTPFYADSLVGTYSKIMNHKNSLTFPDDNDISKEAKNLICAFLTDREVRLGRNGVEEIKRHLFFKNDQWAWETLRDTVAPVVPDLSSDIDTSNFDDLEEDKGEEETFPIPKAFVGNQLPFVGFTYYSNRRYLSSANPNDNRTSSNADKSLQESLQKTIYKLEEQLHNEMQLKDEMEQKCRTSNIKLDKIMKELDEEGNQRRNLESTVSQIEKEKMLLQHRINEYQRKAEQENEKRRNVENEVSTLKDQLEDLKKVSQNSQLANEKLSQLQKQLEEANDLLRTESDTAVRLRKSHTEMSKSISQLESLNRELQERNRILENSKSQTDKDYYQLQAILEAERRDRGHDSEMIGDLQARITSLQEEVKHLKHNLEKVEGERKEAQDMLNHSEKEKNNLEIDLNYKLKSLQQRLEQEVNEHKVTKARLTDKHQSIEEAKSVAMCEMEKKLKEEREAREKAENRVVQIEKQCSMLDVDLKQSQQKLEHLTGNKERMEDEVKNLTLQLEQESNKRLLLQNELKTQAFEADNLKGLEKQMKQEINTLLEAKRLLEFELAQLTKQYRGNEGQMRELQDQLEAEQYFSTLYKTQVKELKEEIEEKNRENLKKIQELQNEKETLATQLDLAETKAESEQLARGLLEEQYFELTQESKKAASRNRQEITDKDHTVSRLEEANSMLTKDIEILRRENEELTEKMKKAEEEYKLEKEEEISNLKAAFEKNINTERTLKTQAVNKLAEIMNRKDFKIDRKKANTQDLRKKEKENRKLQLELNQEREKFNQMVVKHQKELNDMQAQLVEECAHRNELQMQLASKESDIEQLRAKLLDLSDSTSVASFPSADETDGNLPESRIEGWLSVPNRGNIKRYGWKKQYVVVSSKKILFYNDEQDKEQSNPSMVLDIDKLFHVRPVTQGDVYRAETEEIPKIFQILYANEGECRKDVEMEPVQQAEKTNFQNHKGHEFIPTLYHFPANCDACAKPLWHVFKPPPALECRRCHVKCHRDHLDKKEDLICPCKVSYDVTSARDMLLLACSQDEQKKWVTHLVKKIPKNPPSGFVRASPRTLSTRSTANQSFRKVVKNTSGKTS
Also: in the data inactive means no Kd found up to 30 µM.

Sequence of Tyrosine-protein kinase ABL1 (P00519 whole entry): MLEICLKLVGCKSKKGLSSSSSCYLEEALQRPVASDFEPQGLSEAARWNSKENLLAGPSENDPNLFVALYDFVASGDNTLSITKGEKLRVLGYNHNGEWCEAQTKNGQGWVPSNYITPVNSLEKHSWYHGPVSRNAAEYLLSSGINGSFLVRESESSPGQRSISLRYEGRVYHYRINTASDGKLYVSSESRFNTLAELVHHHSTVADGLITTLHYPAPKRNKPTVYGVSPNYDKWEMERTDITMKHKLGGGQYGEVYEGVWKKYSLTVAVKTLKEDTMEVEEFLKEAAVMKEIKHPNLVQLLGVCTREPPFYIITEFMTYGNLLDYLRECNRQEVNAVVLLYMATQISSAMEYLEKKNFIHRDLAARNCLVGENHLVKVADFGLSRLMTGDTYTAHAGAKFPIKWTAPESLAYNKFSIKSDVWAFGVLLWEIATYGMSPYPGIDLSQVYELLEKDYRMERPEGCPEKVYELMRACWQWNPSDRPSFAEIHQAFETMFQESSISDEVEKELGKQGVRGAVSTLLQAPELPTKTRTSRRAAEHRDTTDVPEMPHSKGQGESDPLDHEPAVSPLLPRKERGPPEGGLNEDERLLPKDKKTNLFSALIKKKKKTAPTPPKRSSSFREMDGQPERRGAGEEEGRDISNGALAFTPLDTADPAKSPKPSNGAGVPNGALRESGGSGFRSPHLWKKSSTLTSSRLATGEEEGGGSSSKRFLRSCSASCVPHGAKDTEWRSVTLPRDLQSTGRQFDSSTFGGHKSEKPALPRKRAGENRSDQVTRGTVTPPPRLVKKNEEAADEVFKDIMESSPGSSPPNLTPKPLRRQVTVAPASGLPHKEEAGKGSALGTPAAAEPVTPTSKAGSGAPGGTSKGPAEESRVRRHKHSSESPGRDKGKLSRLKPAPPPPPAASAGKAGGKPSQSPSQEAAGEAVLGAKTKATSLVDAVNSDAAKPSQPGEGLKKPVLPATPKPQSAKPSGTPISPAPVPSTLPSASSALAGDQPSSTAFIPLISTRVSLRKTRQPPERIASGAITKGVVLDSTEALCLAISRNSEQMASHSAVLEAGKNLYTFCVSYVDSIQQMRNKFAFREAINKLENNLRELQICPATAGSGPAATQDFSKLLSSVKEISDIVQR

Row | Kd [1] | Kd [2] | Kd [3] | Kd (Activated CDC42 kinase 1) | Kd [4] | Kd [5] | Kd [6] | Kd [7] | Kd [8] | SMILES | Kd [9]
1 | > 30 µM (inactive) | > 30 µM (inactive) | > 30 µM (inactive) | > 30 µM (inactive) | > 30 µM (inactive) | > 30 µM (inactive) | > 30 µM (inactive) | > 30 µM (inactive) | > 30 µM (inactive) | C[C@H]1CNCCCN1S(=O)(=O)c1cccc2cncc(F)c12 | –
2 | – | > 30 µM (inactive) | > 30 µM (inactive) | – | – | > 30 µM (inactive) | – | > 30 µM (inactive) | > 30 µM (inactive) | COc1cc(Nc2ncc3c(n2)-c2ccc(Cl)cc2C(c2c(F)cccc2OC)=NC3)ccc1C(=O)O [ALISERTIB] | –
3 | – | 0.801 µM (active) | > 30 µM (inactive) | > 30 µM (inactive) | 0.157 µM (active) | – | 0.215 µM (active) | > 30 µM (inactive) | > 30 µM (inactive) | O=C(Nc1c[nH]nc1-c1nc2cc(CN3CCOCC3)ccc2[nH]1)NC1CC1 [AT-9283] | > 30 µM (inactive)
4 | – | – | > 30 µM (inactive) | – | – | – | – | > 30 µM (inactive) | – | CNC(=O)c1ccccc1Sc1ccc2c(/C=C/c3ccccn3)n[nH]c2c1 [AXITINIB] | –
5 | – | – | > 30 µM (inactive) | – | – | – | – | > 30 µM (inactive) | – | C[C@@H](Oc1cc(-n2cnc3ccc(CN4CCN(C)CC4)cc32)sc1C(N)=O)c1ccccc1C(F)(F)F [GSK-461364] | –
6 | > 30 µM (inactive) | > 30 µM (inactive) | > 30 µM (inactive) | > 30 µM (inactive) | > 30 µM (inactive) | > 30 µM (inactive) | > 30 µM (inactive) | > 30 µM (inactive) | > 30 µM (inactive) | CNC(=O)c1cccc2cc(Oc3ccnc4cc(OCC5(N)CC5)c(OC)cc34)ccc12 [LUCITANIB] | –
7 | – | 0.012 µM | > 30 µM (inactive) | – | – | > 30 µM (inactive) | – | > 30 µM (inactive) | > 30 µM (inactive) | Cc1[nH]c(/C=C2\C(=O)Nc3ccccc32)c(C)c1CCC(=O)O [ORANTINIB] | –
8 | – | > 30 µM (inactive) | > 30 µM (inactive) | – | – | – | – | > 30 µM (inactive) | – | NC(=O)c1c(OCc2c(F)cc(Br)cc2F)nsc1NC(=O)NCCCCN1CCCC1 [OSI-632] | –
9 | > 30 µM (inactive) | > 30 µM (inactive) | > 30 µM (inactive) | > 30 µM (inactive) | > 30 µM (inactive) | > 30 µM (inactive) | > 30 µM (inactive) | > 30 µM (inactive) | > 30 µM (inactive) | N#CC1(c2ccc(NC(=O)c3cccnc3NCc3ccncc3)cc2)CCCC1 [RIVOCERANIB] | –
10 | – | – | > 30 µM (inactive) | – | – | – | – | > 30 µM (inactive) | – | O=C(NOCCO)c1cc(CN2OCCCC2=O)c(F)c(F)c1Nc1ccc(I)cc1F [RO-4987655] | –
11 | – | – | > 30 µM (inactive) | – | – | – | – | > 30 µM (inactive) | – | N#CC[C@H](C1CCCC1)n1cc(-c2ncnc3[nH]ccc23)cn1 [RUXOLITINIB] | –
12 | > 30 µM (inactive) | > 30 µM (inactive) | > 30 µM (inactive) | > 30 µM (inactive) | > 30 µM (inactive) | > 30 µM (inactive) | > 30 µM (inactive) | > 30 µM (inactive) | > 30 µM (inactive) | O=c1[nH]ccc2cc(OC3CCNCC3)ccc12 [SAR-407899 FREE BASE] | –
13 | > 30 µM (inactive) | > 30 µM (inactive) | > 30 µM (inactive) | > 30 µM (inactive) | > 30 µM (inactive) | > 30 µM (inactive) | > 30 µM (inactive) | > 30 µM (inactive) | > 30 µM (inactive) | O=C(Cc1ccc(-c2ccc(OCCN3CCOCC3)cc2)cn1)NCc1ccccc1 [TIRBANIBULIN] | –
14 | 0.498 µM (active) | > 30 µM (inactive) | > 30 µM (inactive) | > 30 µM (inactive) | > 30 µM (inactive) | > 30 µM (inactive) | > 30 µM (inactive) | – | > 30 µM (inactive) | C[C@@H](NC(=O)c1ncnc(N)c1Cl)c1ncc(C(=O)Nc2cc(C(F)(F)F)c(Cl)cn2)s1 [TOVORAFENIB] | > 30 µM (inactive)
15 | > 30 µM (inactive) | > 30 µM (inactive) | > 30 µM (inactive) | > 30 µM (inactive) | > 30 µM (inactive) | > 30 µM (inactive) | > 30 µM (inactive) | > 30 µM (inactive) | > 30 µM (inactive) | C[C@@H](N)c1ccc(C(=O)Nc2ccnc3[nH]ccc23)cc1 [Y-39983] | –

Row | SMILES | Kd [1] | Kd [2] | Kd [3] | Kd (Activated CDC42 kinase 1) | Kd [4] | Kd [5] | Kd [6] | Kd [7] | Kd [8] | Kd [9]
16 | CC(=O)c1cnc2ccc(-c3cc(Cl)c(O)c(Cl)c3)nc2c1N[C@H]1CC[C@H](CN(C)C)CC1 | 0.28 µM (active) | – | > 30 µM (inactive) | > 30 µM (inactive) | – | > 30 µM (inactive) | – | > 30 µM (inactive) | > 30 µM (inactive) | > 30 µM (inactive)
17 | CC(C)(C)c1nc(-c2cccc(NS(=O)(=O)c3c(F)cccc3F)c2F)c(-c2ccnc(N)n2)s1 [DABRAFENIB] | – | > 30 µM (inactive) | > 30 µM (inactive) | – | > 30 µM (inactive) | > 30 µM (inactive) | > 30 µM (inactive) | > 30 µM (inactive) | > 30 µM (inactive) | –
18 | O=C(Nc1cc(C(F)(F)F)cc(C(F)(F)F)c1)c1cc(Cl)ccc1O [IMD-0354] | > 30 µM (inactive) | > 30 µM (inactive) | > 30 µM (inactive) | > 30 µM (inactive) | > 30 µM (inactive) | > 30 µM (inactive) | > 30 µM (inactive) | > 30 µM (inactive) | > 30 µM (inactive) | –
19 | CNC(=O)c1cc(Oc2ccc(NC(=O)Nc3cc(C(C)(C)C)nn3-c3ccc4ncccc4c3)c(F)c2)ccn1 [REBASTINIB] | – | 1.88 µM (active) | > 30 µM (inactive) | > 30 µM (inactive) | – | > 30 µM (inactive) | > 30 µM (inactive) | > 30 µM (inactive) | > 30 µM (inactive) | > 30 µM (inactive)
